{
  "source": "patent US10239832B2",
  "about": "“N-(1-hydroxy-3-(pyrrolidinyl)propan-2-yl)pyrrolidine-3-carboxamide derivatives as glucosylceramide synthase inhibitors” (BIOMARIN PHARMACEUTICAL INC., priority 2013, dated 2019)",
  "molecular_target": "T1, GCS (Canis lupus familiaris, UniProt A0A8I3MXG6)",
  "T1 construct": "endogenous in cells; host or cells: MDCK (Madin-Darby canine kidney) cells, whole-cell lysate",
  "T1 sequence (A0A8I3MXG6 1-394)": "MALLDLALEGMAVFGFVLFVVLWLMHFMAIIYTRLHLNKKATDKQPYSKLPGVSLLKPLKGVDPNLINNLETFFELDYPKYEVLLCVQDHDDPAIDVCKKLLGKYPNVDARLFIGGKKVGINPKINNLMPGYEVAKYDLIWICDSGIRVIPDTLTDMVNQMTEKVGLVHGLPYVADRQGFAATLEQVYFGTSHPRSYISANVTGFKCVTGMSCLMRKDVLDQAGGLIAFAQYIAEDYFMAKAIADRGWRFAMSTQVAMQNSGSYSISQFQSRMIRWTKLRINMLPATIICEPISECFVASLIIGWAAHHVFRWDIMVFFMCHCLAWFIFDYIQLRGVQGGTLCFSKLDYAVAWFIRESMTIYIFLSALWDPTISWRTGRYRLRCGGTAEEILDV",
  "assay": "GCS enzymatic assay (MDCK cell lysate, NBD-ceramide to glucosylceramide, LC/MS)",
  "assay_type": "biochemical, canine",
  "conditions": "Table 2, the table does not say which of the assays; for Data Range (% inhibition): class symbols D, E, F, NA (not active); for IC50: class symbols A, B, C, read-out: Data Range (IC50 values)",
  "outline": "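Dog MDCK cell lysate served as enzyme source, with NBD-ceramide turned over to glucosylceramide and 0.1% DMSO as mock control. The reaction was stopped with acetonitrile. Both lipids were quantified by LC/MS/MS in ESI positive MRM mode against a tolbutamide internal standard, giving IC50 or percent inhibition.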",
  "data": [
    {"molecule": "O=C(N[C@H](CN1CCCC1)[C@H](O)c1ccc(OC2CC2)c(Cl)c1)[C@H]1CCN(c2ccc3ccccc3c2)C1", "note": "[Compound 67C, (S)-N-((1R,2R)-1-(3-chloro-4-cyclopropoxyphenyl)-1-hydroxy-3-(pyrrolidin-1-yl)propan-2-yl)-1-(naphthalen-2-yl)pyrrolidine-3-carboxamide]", "values": [
      {"measurement": "Data Range (% inhibition)", "result": "E (50-74% (or less than 75%))"}
    ]},
    {"molecule": "O=C(N[C@H](CN1CCCC1)[C@H](O)c1cc(F)c2c(c1)OCCO2)[C@@H]1CCN(c2ccc3ccccc3n2)C1", "note": "[Compound 68, (R)-N-((1R,2R)-1-(8-fluoro-2,3-dihydrobenzo[b][1,4]dioxin-6-yl)-1-hydroxy-3-(pyrrolidin-1-yl)propan-2-yl)-1-(quinolin-2-yl)pyrrolidine-3-carboxamide]", "values": [
      {"measurement": "IC50", "result": "1 to 30", "unit": "nM"}
    ]},
    {"molecule": "O=C(N[C@H](CN1CCCC1)[C@H](O)c1ccc(OC2CC2)c(F)c1)[C@@H]1CCN(c2ccc(F)cc2)C1", "note": "[Compound 69, (R)-N-((1R,2R)-1-(4-cyclopropoxy-3-fluorophenyl)-1-hydroxy-3-(pyrrolidin-1-yl)propan-2-yl)-1-(4-fluorophenyl)pyrrolidine-3-carboxamide]", "values": [
      {"measurement": "IC50", "result": "1 to 30", "unit": "nM"}
    ]},
    {"molecule": "O=C(N[C@H](CN1CCCC1)[C@H](O)c1ccc(OC2CC2)c(F)c1)[C@H]1CCN(c2ccc(F)cc2)C1", "note": "[Compound 69A, (S)-N-((1R,2R)-1-(4-cyclopropoxy-3-fluorophenyl)-1-hydroxy-3-(pyrrolidin-1-yl)propan-2-yl)-1-(4-fluorophenyl)pyrrolidine-3-carboxamide]", "values": [
      {"measurement": "Data Range (% inhibition)", "result": "F (1-49% (or less than 50%))"}
    ]},
    {"molecule": "O=C(N[C@H](CN1CCCC1)[C@H](O)c1ccc2c(c1)OCCO2)[C@@H]1CCN(c2ccc3ccccc3c2)C1", "note": "[Compound 70, (R)-N-((1R,2R)-1-(2,3-dihydrobenzo[b][1,4]dioxin-6-yl)-1-hydroxy-3-(pyrrolidin-1-yl)propan-2-yl)-1-(naphthalen-2-yl)pyrrolidine-3-carboxamide]", "values": [
      {"measurement": "IC50", "result": "1 to 30", "unit": "nM"}
    ]},
    {"molecule": "O=C(N[C@H](CN1CCCC1)[C@H](O)c1ccc2c(c1)OCCO2)[C@H]1CCN(c2ccc3ccccc3c2)C1", "note": "[Compound 70A, (S)-N-((1R,2R)-1-(2,3-dihydrobenzo[b][1,4]dioxin-6-yl)-1-hydroxy-3-(pyrrolidin-1-yl)propan-2-yl)-1-(naphthalen-2-yl)pyrrolidine-3-carboxamide]", "values": [
      {"measurement": "Data Range (% inhibition)", "result": "E (50-74% (or less than 75%))"}
    ]},
    {"molecule": "CC1(C)CCc2ccc(N3CC[C@@H](C(=O)N[C@H](CN4CCCC4)[C@H](O)c4ccc5c(c4)OCCO5)C3)cc2O1", "note": "[Compound 71, (R)-N-((1R,2R)-1-(2,3-dihydrobenzo[b][1,4]dioxin-6-yl)-1-hydroxy-3-(pyrrolidin-1-yl)propan-2-yl)-1-(2,2-dimethylchroman-7-yl)pyrrolidine-3-carboxamide]", "values": [
      {"measurement": "IC50", "result": "30 to 100", "unit": "nM"}
    ]},
    {"molecule": "CC1(C)CCc2ccc(N3CCC(C(=O)N[C@H](CN4CCCC4)[C@H](O)c4ccc5c(c4)OCCO5)C3)cc2O1", "note": "(stereo partly drawn) [Compound 71E, N-((1R,2R)-1-(2,3-dihydrobenzo[b][1,4]dioxin-6-yl)-1-hydroxy-3-(pyrrolidin-1-yl)propan-2-yl)-1-(2,2-dimethylchroman-7-yl)pyrrolidine-3-carboxamide]", "values": [
      {"measurement": "Data Range (% inhibition)", "result": "E (50-74% (or less than 75%))"}
    ]},
    {"molecule": "CC1(C)CCc2ccc(N3CC[C@H](C(=O)N[C@H](CN4CCCC4)[C@H](O)c4ccc5c(c4)OCCO5)C3)cc2O1", "note": "[Compound 71F, (S)-N-((1R,2R)-1-(2,3-dihydrobenzo[b][1,4]dioxin-6-yl)-1-hydroxy-3-(pyrrolidin-1-yl)propan-2-yl)-1-(2,2-dimethylchroman-7-yl)pyrrolidine-3-carboxamide]", "values": [
      {"measurement": "Data Range (% inhibition)", "result": "F (1-49% (or less than 50%))"}
    ]},
    {"molecule": "O=C(N[C@H](CN1CCCC1)[C@H](O)c1ccc2c(c1)OCCO2)[C@@H]1CCN(c2ccc3ccccc3n2)C1", "note": "[Compound 72, (R)-N-((1R,2R)-1-(2,3-dihydrobenzo[b][1,4]dioxin-6-yl)-1-hydroxy-3-(pyrrolidin-1-yl)propan-2-yl)-1-(quinolin-2-yl)pyrrolidine-3-carboxamide]", "values": [
      {"measurement": "IC50", "result": "1 to 30", "unit": "nM"}
    ]},
    {"molecule": "O=C(N[C@H](CN1CCCC1)[C@H](O)c1ccc2c(c1)OCCO2)C1CCN(c2ccc3ccccc3n2)C1", "note": "(stereo partly drawn) [Compound 72A, N-((1R,2R)-1-(2,3-dihydrobenzo[b][1,4]dioxin-6-yl)-1-hydroxy-3-(pyrrolidin-1-yl)propan-2-yl)-1-(quinolin-2-yl)pyrrolidine-3-carboxamide]", "values": [
      {"measurement": "Data Range (% inhibition)", "result": "D (75-100%)"}
    ]},
    {"molecule": "O=C(N[C@H](CN1CCCC1)[C@H](O)c1ccc2c(c1)OCCO2)[C@H]1CCN(c2ccc3ccccc3n2)C1", "note": "[Compound 72B, (S)-N-((1R,2R)-1-(2,3-dihydrobenzo[b][1,4]dioxin-6-yl)-1-hydroxy-3-(pyrrolidin-1-yl)propan-2-yl)-1-(quinolin-2-yl)pyrrolidine-3-carboxamide]", "values": [
      {"measurement": "Data Range (% inhibition)", "result": "F (1-49% (or less than 50%))"}
    ]},
    {"molecule": "O=C(N[C@H](CN1CCC1)[C@H](O)c1ccc(OC2CC2)c(Cl)c1)[C@@H]1CCN(c2ccc(Cl)cc2)C1", "note": "[Compound 73, (R)-N-((1R,2R)-3-(azetidin-1-yl)-1-(3-chloro-4-cyclopropoxyphenyl)-1-hydroxypropan-2-yl)-1-(4-chlorophenyl)pyrrolidine-3-carboxamide]", "values": [
      {"measurement": "IC50", "result": "1 to 30", "unit": "nM"}
    ]},
    {"molecule": "O=C(N[C@H](CN1CCCC1)[C@H](O)c1ccc(N2CCOCC2)c(Cl)c1)[C@@H]1CCN(c2ccc(Cl)cc2)C1", "note": "[Compound 74, (R)-N-((1R,2R)-1-(3-chloro-4-morpholinophenyl)-1-hydroxy-3-(pyrrolidin-1-yl)propan-2-yl)-1-(4-chlorophenyl)pyrrolidine-3-carboxamide]", "values": [
      {"measurement": "Data Range (% inhibition)", "result": "D (75-100%)"}
    ]},
    {"molecule": "O=C(N[C@H](CN1CCCC1)[C@H](O)c1ccc(N2CCOCC2)c(Cl)c1)[C@H]1CCN(c2ccc(Cl)cc2)C1", "note": "[Compound 74C, (S)-N-((1R,2R)-1-(3-chloro-4-morpholinophenyl)-1-hydroxy-3-(pyrrolidin-1-yl)propan-2-yl)-1-(4-chlorophenyl)pyrrolidine-3-carboxamide]", "values": [
      {"measurement": "Data Range (% inhibition)", "result": "NA (not active—a negative value was generated for % inhibition)"}
    ]},
    {"molecule": "O=C(N[C@H](CN1CCCC1)[C@H](O)c1ccc(OC2CC2)c(Cl)c1)[C@@H]1CCN(c2cccc(Oc3ccccn3)c2)C1", "note": "[Compound 75, (R)-N-((1R,2R)-1-(3-chloro-4-cyclopropoxyphenyl)-1-hydroxy-3-(pyrrolidin-1-yl)propan-2-yl)-1-(3-(pyridin-2-yloxy)phenyl)pyrrolidine-3-carboxamide]", "values": [
      {"measurement": "IC50", "result": "1 to 30", "unit": "nM"}
    ]},
    {"molecule": "O=C(N[C@H](CN1CCCC1)[C@H](O)c1ccc(OC2CC2)c(Cl)c1)[C@H]1CCN(c2cccc(Oc3ccccn3)c2)C1", "note": "[Compound 75E, (S)-N-((1R,2R)-1-(3-chloro-4-cyclopropoxyphenyl)-1-hydroxy-3-(pyrrolidin-1-yl)propan-2-yl)-1-(3-(pyridin-2-yloxy)phenyl)pyrrolidine-3-carboxamide]", "values": [
      {"measurement": "Data Range (% inhibition)", "result": "D (75-100%)"}
    ]},
    {"molecule": "O=C(N[C@H](CN1CCCC1)[C@H](O)c1ccc2c(c1)OCCO2)[C@@H]1CCN(c2ccc3cc(Cl)sc3c2)C1", "note": "[Compound 76, (R)-1-(2-chlorobenzo[b]thiophen-6-yl)-N-((1R,2R)-1-(2,3-dihydrobenzo[b][1,4]dioxin-6-yl)-1-hydroxy-3-(pyrrolidin-1-yl)propan-2-yl)pyrrolidine-3-carboxamide]", "values": [
      {"measurement": "IC50", "result": "30 to 100", "unit": "nM"}
    ]},
    {"molecule": "O=C(N[C@H](CN1CCCC1)[C@H](O)c1ccc2c(c1)OCCO2)C1CCN(c2ccc3cc(Cl)sc3c2)C1", "note": "(stereo partly drawn) [Compound 76D, 1-(2-chlorobenzo[b]thiopen-6-yl)-N-((1R,2R)-1-(2,3-dihydrobenzo[b][1,4]dioxin-6-yl)-1-hydroxy-3-(pyrrolidin-1-yl)propan-2-yl)pyrrolidine-3-carboxamide]", "values": [
      {"measurement": "IC50", "result": "1 to 30", "unit": "nM"}
    ]}
  ]
}
